≈ marks a conversion by molar mass, not a printed value. Where two headings read alike, the source gives them in different places.
What was measured:
Assay in all cases: In vitro antibacterial MIC, agar plate dilution
Assay type in all cases: cell-based
[1] = tested on: Excherichia coli CMC 84-11; conditions: Table II
Procedure: (§1) The in vitro antimicrobial spectrum of the compounds of this invention were determined by the agar plate dilution method with Mueller-Hinton agar and an inoculum of each test organism of approximately 10^4 colony forming units delivered by the Steers replicating device. The minimal inhibitory concentration (MIC) in mcg/ml is defined as the lowest concentration of test compound that inhibited visible growth after 18 hours incubation at 35° C. Results are given in Table I, with the test compounds identified by the number of their hereinafter described examples

[2] = tested on: Staphylococcus aureus ATCC 29213; conditions: Table II
Procedure: as §1

[3] = tested on: Pseudomonas aeruginosa LL-1244; conditions: Table II
Procedure: as §1

[4] = tested on: Streptococcus faecalis VGH 84-65; conditions: Table II
Procedure: as §1

[5] = tested on: Proteus rettgeri CMC 84-41; conditions: Table II
Procedure: as §1

[6] = tested on: Morganella morganii CMC 84-37; conditions: Table II
Procedure: as §1

[7] = tested on: Serratia marcescens K 84-18; conditions: Table II
Procedure: as §1

Excherichia coli LL 311 = conditions: Table II
Procedure: as §1

[8] = tested on: Escherichia coli ATCC 25922; conditions: Table II, Excherichia coli ATCC 25922
Procedure: as §1

[9] = tested on: Streptococcus faecalis UCI 85-19; conditions: Table II
Procedure: as §1

[10] = tested on: Staphylococcus aureus Smith 1; conditions: Table II
Procedure: as §1

[11] = tested on: Serratia marcescens VGH 84-30; conditions: Table II
Procedure: as §1

[12] = tested on: Pseudomonas aeruginosa VGH 84-4; conditions: Table II
Procedure: as §1

[13] = tested on: Staphylococcus aureus VGH 84-45; conditions: Table II
Procedure: as §1

[14] = Staphylococcus aureus, ATCC29213, 18 h, read-out: MIC
[15] = Pseudomonas aeruginosa, LL1244, 18 h, read-out: MIC
[16] = Enterococcus faecalis, VGH8465, 18 h, read-out: MIC
[17] = Providencia rettgeri, CMC8441, 18 h, read-out: MIC
[18] = Escherichia coli, ATCC25922, 18 h, read-out: MIC
[19] = Enterococcus faecalis, UCI8519, 18 h, read-out: MIC
[20] = Staphylococcus aureus, SMITH1, 18 h, read-out: MIC
[21] = Pseudomonas aeruginosa, VGH844, 18 h, read-out: MIC

MIC ([1]; 18 h, read-out: MIC) [µg/mL]	MIC [2, 14] [µg/mL]	MIC [3, 15] [µg/mL]	MIC [4, 16] [µg/mL]	MIC [5, 17] [µg/mL]	MIC ([6]; CMC8437, 18 h, read-out: MIC) [µg/mL]	MIC ([7]; K8418, 18 h, read-out: MIC) [µg/mL]	MIC (Excherichia coli LL 311; 18 h, read-out: MIC) [µg/mL]	MIC [8, 18] [µg/mL]	MIC [9, 19] [µg/mL]	MIC [10, 20] [µg/mL]	MIC ([11]; VGH8430, 18 h, read-out: MIC) [µg/mL]	MIC [12, 21] [µg/mL]	MIC ([13]; VGH8445, 18 h, read-out: MIC) [µg/mL]	MIC [10] [µg/mL]	SMILES	further results
32 (≈ 91.9 µM)	64 (≈ 184 µM)	> 128	> 128	64 (≈ 184 µM)	32 (≈ 91.9 µM)	64 (≈ 184 µM)	16 (≈ 45.9 µM)	32 (≈ 91.9 µM)	> 128	8 (≈ 23 µM)	> 128	> 128	32 (≈ 91.9 µM)	–	CCn1cc(C(=O)O)c(=O)c2cc(F)c(N[C@@H]3CCCC[C@@H]3O)cc21 (relative stereo) [Example 5, Cis-7-[(2-Hydroxycyclohecxyl)amino]-1-ethyl-6-fluoro-1,4-dihydro-4-oxo-3-quinolinecarboxylic acid]	–
0.5 (≈ 1.44 µM)	8 (≈ 23 µM)	8 (≈ 23 µM)	8 (≈ 23 µM)	1 (≈ 2.88 µM)	0.5 (≈ 1.44 µM)	1 (≈ 2.88 µM)	0.5 (≈ 1.44 µM)	0.5 (≈ 1.44 µM)	8 (≈ 23 µM)	0.5 (≈ 1.44 µM)	4 (≈ 11.5 µM)	8 (≈ 23 µM)	2 (≈ 5.76 µM)	–	CCn1cc(C(=O)O)c(=O)c2cc(F)c(N[C@@H]3CCCC[C@@H]3N)cc21 (relative stereo) [Example 6, Cis-7-[(2-Aminocyclohexyl)amino]-1-ethyl-6-fluoro-1,4-dihydro-4-oxo-3-quinolinecarboxylic acid]	–
–	–	–	–	–	–	–	–	–	–	–	–	–	–	128.00 (≈ 368 µM)	CCn1cc(C(=O)O)c(=O)c2cc(F)c(N[C@@H]3CCCC[C@H]3N)cc21 (relative stereo) [Example 9, Trans-(+)-7-[(2-Aminocyclohexyl)amino]-1-ethyl-6-fluoro-1,4-dihydro-4-oxo-3-quinolinecarboxylic acid]	MIC [1]: 16.00 µg/mL (≈ 46.1 µM); MIC [2]: > 128.00 µg/mL; MIC [3]: 128.00 µg/mL (≈ 368 µM); MIC [4]: 64.00 µg/mL (≈ 184 µM); MIC [5]: 128.00 µg/mL (≈ 368 µM); MIC [6]: 32.00 µg/mL (≈ 92.1 µM); MIC [7]: 32.00 µg/mL (≈ 92.1 µM); MIC (Excherichia coli LL 311): 32.00 µg/mL (≈ 92.1 µM); MIC [8]: 32.00 µg/mL (≈ 92.1 µM); MIC [9]: 128.00 µg/mL (≈ 368 µM); MIC [11]: 128.00 µg/mL (≈ 368 µM); MIC [12]: 128.00 µg/mL (≈ 368 µM); MIC [13]: 128.00 µg/mL (≈ 368 µM)
16 (≈ 46.1 µM)	128 (≈ 368 µM)	> 128	64 (≈ 184 µM)	128 (≈ 368 µM)	32 (≈ 92.1 µM)	32 (≈ 92.1 µM)	32 (≈ 92.1 µM)	32 (≈ 92.1 µM)	128 (≈ 368 µM)	–	128 (≈ 368 µM)	> 128	128 (≈ 368 µM)	16.00 (≈ 46.1 µM)	CCn1cc(C(=O)O)c(=O)c2cc(F)c(N[C@@H]3CCCC[C@H]3N)cc21 (relative stereo) [Example 8, Trans-(-)-7-[(2-Aminocyclohexyl)amino]-1-ethyl-6-fluoro-1,4-dihydro-4-oxo-3-quinolinecarboxylic acid]	–
4 (≈ 11.1 µM)	8 (≈ 22.1 µM)	128 (≈ 354 µM)	32 (≈ 88.5 µM)	32 (≈ 88.5 µM)	8 (≈ 22.1 µM)	8 (≈ 22.1 µM)	4 (≈ 11.1 µM)	8 (≈ 22.1 µM)	32 (≈ 88.5 µM)	2 (≈ 5.53 µM)	32 (≈ 88.5 µM)	128 (≈ 354 µM)	4 (≈ 11.1 µM)	–	CCn1cc(C(=O)O)c(=O)c2cc(F)c(N[C@@H]3CCCC[C@@H]3NC)cc21 (relative stereo) [Example 10]	–
16 (≈ 46.1 µM)	> 128	128 (≈ 368 µM)	64 (≈ 184 µM)	128 (≈ 368 µM)	32 (≈ 92.1 µM)	64 (≈ 184 µM)	32 (≈ 92.1 µM)	32 (≈ 92.1 µM)	128 (≈ 368 µM)	16 (≈ 46.1 µM)	128 (≈ 368 µM)	128 (≈ 368 µM)	128 (≈ 368 µM)	–	CCn1cc(C(=O)O)c(=O)c2cc(F)c(N[C@@H]3CCCC[C@H]3N)cc21 (racemic) [Example 7, Trans-(+/-)-7-[(2-Aminocyclohexyl)amino]1-ethyl-6-fluoro-1,4-dihydro-4-oxo-3-quinolinecarboxylic acid]	–
